{"source": "patent US8796241B2", "about": "“Therapy of tumors and infectious agents deficient in methylthioadenosine phosphorylase” (priority 2007, dated 2014)", "key": {"[1]": {"system": "human and mouse tumor cells", "assay": "Killing of tumor cells by adenine analogs (Applicants' findings, no method given)", "assay_type": "cell-based"}, "MTAP(+) HF cells [2]": {"system": "MTAP(+) HF cells", "assay": "Coulter counts of HF cell cultures", "assay_type": "cell-based, human", "conditions": "for Coulter counts: x56 = cells/dish", "experimental": "For adherent cell types (e.g., HF, A549, MCF7) cells were plated in 60 mm -diameter plastic tissue culture dishes and incubated at 37° C. in a humidified 5% CO2 atmosphere, in Dulbecco's Modified Eagle's Medium (DME) with 10% fetal bovine serum (FBS). At the start of an experiment, medium was replaced with DME and 10% dialyzed FBS.\n(§1) For adherent cell types, cell numbers were determined periodically by releasing cells with trypsin (dead cells that were no longer adherent were removed by two prior rinses of the culture dish) and placing a portion of the resulting cell suspension in a Coulter counter. For cell types that grow in suspension, portions of the culture were counted directly, without trypsin treatment. Coulter counts of cells from each dish were done twice, and almost all experiments were done in duplicate. In the presentation of results, raw data for Coulter counts is given in some cases, while in others, counts have been rounded off to two to three significant figures. (Background Coulter counts—i.e., counts of diluent alone—were insignificant.)\nCell cultures were treated with MeP, with or without 5′-dAdo or MTA, for 4 days. The cell cultures were then changed to fresh medium, with the addition of 30 μM Ade to inhibit further action of the analog. Two days later cultures were trypsinized and a portion of the suspension was counted.\n• A. F-Ade was added to cultures of HF cells, with varying amounts of 5′-dAdo. After 3 days, cell numbers were counted. • Initial cell count: 1,100 • After three days:\n• Cultures of human fibroblasts were treated with DAP, 5′-dAdo, MTA, adenine, or MTX. Thymidine (15 μM) was added to all cultures. • Initial count was: 1807 • Counts, as raw data, after 3 days of incubation, are shown below: […]\n• Human fibroblasts in culture were treated with 6-thioguanine (TG), 2,6-diaminopurine (DAP), or 5′-dAdo for 3 days. After trypsinization, cell numbers were counted. • Initial cell number: 296,000"}, "[3]": {"system": "MCF7 cells, an MTAP-negative human breast adenocarcinoma cell line", "assay": "Coculture of HF and MCF7 cells treated with DAP with or without MTA, photographs", "assay_type": "cell-based", "experimental": "(§2) FIGS. 6A and 6B present photographs of experiments examining the efficacy of the selective therapeutic method of the invention in two human-tissue coculture experiments. In both experiments human fibroblasts (HF cells), which are MTAP-positive, and MCF7 cells, an MTAP-negative human breast adenocarcinoma cell line, were seeded together into culture dishes, in DME supplemented with 10% dialyzed fetal bovine serum.\n(§3) In the experiment of FIG. 6A the cell coculture was treated for four days with 100 μM DAP and 25 μM MTA. At the end of this period, some of the culture dishes were fixed, to be photographed. Other dishes were trypsinized and diluted five-fold into fresh (drug-free) medium with adenine added (to stop any further toxic action of DAP) and allowed to grow for two more, or five more, days, before being fixed for photography.\n(§4) In the experiment of FIG. 6B cell cocultures were treated for three days with 200 μM DAP alone or with the addition of 50 μM MTA, or with no drugs at all. As shown in the photo of the dish without any drugs added to the culture medium, both HF and MCF7 grew very well; many large masses of MCF7 cells are visible, with the elongated HF cells interspersed, confluently, between the MCF7 masses."}, "[4]": {"system": "human fibroblasts (HF cells), MTAP-positive", "assay": "Coculture of HF and MCF7 cells treated with DAP with or without MTA, photographs", "assay_type": "cell-based", "experimental": "as §2, §3, §4"}, "MTAP(−) A549 cells [5]": {"system": "MTAP(−) A549 cells", "assay": "Clonogenic assay of A549 cells", "assay_type": "cell-based, human", "experimental": "(§5) Cell viability of adherent cell types was measured by clonogenic assay as follows: after releasing cells with trypsin and removing a portion of the cell suspension for Coulter counting, the remainder of the cell suspension was plated in serial dilutions in growth medium, without drugs. After a period sufficient for clones to reach a size visible by eye (usually 2 to 3 weeks), clones were stained with crystal violet in a saline/methanol solution. Dishes that had fewer than 100 clones were deemed suitable for counting. From these counts and from the dilution factors, the approximate number of viable cells, in the parent treatment dishes, was calculated. […] In clonogenic assays, clone size was often variable, especially after treatment with toxic drugs. Moreover, many of the very small clones may have arisen from cells detached during the weeks of incubation. […] Cloning efficiency for healthy, growing A549 cells was about 50%; for HF cells, efficiency was quite variable, ranging from 25 to 75% (perhaps because the HF cell stock varied, from experiment to experiment, in passage number).\nA549 cells were incubated for 4 days with additions shown below, and viable cells measured by clonogenic assay. (Results shown are approximate; see Methods) Cell count in dish at start: 40,000\n(§6) • MTAP(−) A549 lung tumor cell cultures were treated with F-Ade, with or without MTA, 5′-dAdo, or adenine (Ade), for three days. Coulter counts of cells, and viable cells as determined by clonogenic assay, are shown below: • Initial cell number: 10,340*\n• A549 cell cultures were treated with DAP, with or without 5′-dAdo or adenine, for three days. After trypsinization, one-fourth of the cell suspension was counted, and raw data is shown below, with duplicate counts for each sample. The cell suspension was also serially diluted for clonogenic assay. • Counts at start of experiment: Dish one: 36,480; 39,160; Dish two: 52,680; 51,360. • Initial viable cells by clonogenic assay: 180,000.\n• Cell cultures were treated with MTX or alanosine for one day. DAP was then added and 3 days later, cells were trypsinized and serially diluted for clonogenic assay. Results are shown below: • Initial viable cells: 146,000\n• A549 cells were plated, and after they had adhered to the substrate, medium was changed to methionine-free medium with 10% dialyzed serum. L-ethionine (Eth) and MTA were added, and after 4 days, cell cultures were trypsinized and serially diluted for clonogenic assay. • Initial number of viable cells: 160,000*\n• A549 cultures were treated with 6-thioguanine (TG) or 2,6,diaminopurine (DAP), or both, for 3 days. • Initial viable cells: 275,000 • After 3 days: […]"}, "MTAP(+) ML-1 cells": {"system": "MTAP(+) ML-1 cells", "assay": "Coulter counts of ML-1 suspension cultures", "assay_type": "cell-based", "experimental": "For cell types that grow in suspension (e.g., ML-1, HL-60, K-562) medium was RPMI-1640 with 10% FBS (undialyzed).\nas §1\nFor cells that grow in suspension, the effect of treatments was assessed solely by changes in Coulter count.\n• ML-1 cells were incubated in RPMI 1640 with 10% FBS with 5′-dAdo (60 μM) for 6 hours. 5-fluorouracil (FU), 6-thioguanine (TG), or 2,6-diaminopurine (DAP) were then added, and after 2 additional days, 0.5 ml was taken for Coulter counts. Initial Coulter count/ml: 308,000"}, "MTAP(+) HF cells [6]": {"system": "MTAP(+) HF cells", "assay": "Coculture of HF and A549-ouaR cells, clonogenic assay", "assay_type": "cell-based, human", "experimental": "as §5\n(§7) HF and A549-ouaR (a ouabain-resistant derivative of the human lung carcinoma cell line A549, isolated by Applicants) cells were cultured together in a medium containing DAP, and with or without 5′-dAdo. After 3 days, cultures were trypsinized and serially diluted into fresh medium for clonogenic assays. Some dishes were treated with 0.1 μM ouabain to kill HF cells and permit easy visualization of surviving A549-ouaR clones. Initial viable cells: HF cells, 11,000; A549-ouaR cells, 40,000."}, "MTAP(−) A549-ouaR cells": {"system": "MTAP(−) A549-ouaR cells", "assay": "Coculture of HF and A549-ouaR cells, clonogenic assay", "assay_type": "cell-based, human", "experimental": "as §5, §7"}, "MTAP(+) HF cells [7]": {"system": "MTAP(+) HF cells", "assay": "Clonogenic assay of HF cells", "assay_type": "cell-based, human", "experimental": "as §5\n• B. F-Ade was added to cultures of MTAP(+) HF cells, with or without 5′-dAdo, for 3 days. Cultures were then trypsinized and serially diluted for clonogenic assay. • Initial number of viable cells per dish: 45,000 • Viable cells after 3 days shown below:\n• HF cells were plated, and after they had adhered to the substrate, medium was changed to methionine-free medium, with 10% dialyzed serum. • Initial Coulter count: 73,000*; viable cells: 88,000 • After 3 days in methionine-free medium, with or without L-ethionine (Eth) or MTA: […]"}, "MTAP(−) A549 cells [8]": {"system": "MTAP(−) A549 cells", "assay": "Coulter counts of A549 cell cultures", "assay_type": "cell-based, human", "conditions": "three days, MTA, 5′-dAdo or Ade 40 μM where present, initial 10,340, x4 = cells per dish", "experimental": "as §1, §6\n• A549 cell cultures were treated with DAP, with or without 5′-dAdo or adenine, for three days. After trypsinization, one-fourth of the cell suspension was counted, and raw data is shown below, with duplicate counts for each sample. […]"}, "[9]": {"conditions": "a few days of treatment with 100-200 μM DAP"}, "[10]": {"conditions": "three days, DAP 200 μM, MTA 50 μM where present"}}, "note": "Marks after values point to notes of the source that are not given here.", "data": [{"smiles": "Nc1nc(N)c2[nH]cnc2n1", "note": "[DAP, 2,6-diaminopurine]", "values": [{"measurement": "killing of human and mouse tumor cells", "setting": "[1]", "value": "very rapid and potent killing"}, {"measurement": "Coulter counts", "setting": "MTAP(+) HF cells [2]; 3 days, MTX 10 μM, DAP 100 μM, 5′-dAdo, MTA or Ade 15 μM where present, thymidine 15 μM in all cultures, initial count 1807", "value": "2,483"}, {"measurement": "Increase in cells/dish", "setting": "MTAP(+) HF cells [2]; 3 days, TG 40 μM, DAP 50 μM, 5′-dAdo 60 μM where present, initial cell number 296,000", "value": "254,000 cells/dish"}, {"measurement": "inhibition of MTAP(+) HF cells", "setting": "MTAP(+) HF cells [2]; Example 8", "value": "inhibited"}, {"measurement": "inhibition of HF cell growth", "setting": "MTAP(+) HF cells [2]; Example 15", "value": "inhibited"}, {"measurement": "killing of MCF7 cells in coculture", "setting": "[3]; [9]", "value": "effectively killed"}, {"measurement": "MCF7 cells in coculture (photographs, FIG. 6B)", "setting": "[3]; [10]", "value": "very few, if any, HF or MCF7 cells have survived"}, {"measurement": "killing of HF cells in coculture", "setting": "[4]; [9]", "value": "effectively killed"}, {"measurement": "HF cells in coculture (photographs, FIG. 6B)", "setting": "[4]; [10]", "value": "very few, if any, HF or MCF7 cells have survived"}, {"measurement": "toxicity to MTAP(−) A549 cells", "setting": "MTAP(−) A549 cells [5]; 100 μM DAP", "value": "highly toxic"}, {"measurement": "Viable Cells", "setting": "MTAP(−) A549 cells [5]; 3 days, TG 40 μM, DAP 50 μM where present, initial viable cells 275,000", "value": "12,000"}, {"measurement": "Viable Cells", "setting": "MTAP(−) A549 cells [5]; MTX 1 μM or alanosine 3 μM for one day, then DAP 40 μM, 3 days (where present), initial viable cells 146,000", "value": "59,000"}, {"measurement": "Viable Cells", "setting": "MTAP(−) A549 cells [5]; three days, DAP 100 μM, 5′-dAdo or Ade 30 μM where present, initial viable cells 180,000", "value": 0}, {"measurement": "Increase in cell number/ml, No 5′-dAdo", "setting": "MTAP(+) ML-1 cells; 2 days, FU 3 μM, TG 20 μM, DAP 50 μM where present, initial Coulter count/ml 308,000", "value": "220,000 /ml"}, {"measurement": "inhibition of growth of MTAP(+) ML-1 cells", "setting": "MTAP(+) ML-1 cells; Example 14", "value": "inhibited growth"}, {"measurement": "killing of HF cells in coculture", "setting": "MTAP(+) HF cells [6]; DAP alone", "value": "effectively killed"}, {"measurement": "Viable HF", "setting": "MTAP(+) HF cells [6]; coculture, 3 days, DAP 125 μM, 5′-dAdo 7.5 μM where present, initial viable HF cells 11,000", "value": 240}, {"measurement": "killing of A549-ouaR cells in coculture", "setting": "MTAP(−) A549-ouaR cells; DAP alone", "value": "effectively killed"}, {"measurement": "Viable A549-ouaR", "setting": "MTAP(−) A549-ouaR cells; coculture, 3 days, DAP 125 μM, 5′-dAdo 7.5 μM where present, initial viable A549-ouaR cells 40,000", "value": 0}]}, {"smiles": "Nc1nc(F)nc2nc[nH]c12", "note": "[F-Ade, 2-fluoroadenine]", "values": [{"measurement": "killing of human and mouse tumor cells", "setting": "[1]", "value": "very rapid and potent killing"}, {"measurement": "killing of human tumor cells", "setting": "[1]; very short-term assays of 6 to 12 hours", "value": "effectively kill"}, {"measurement": "Coulter counts", "setting": "MTAP(+) HF cells [2]; 3 days, F-Ade 0.3 μM, 5′-dAdo 7.5 μM where present, initial count 1,100", "value": 1478}, {"measurement": "Coulter counts", "setting": "MTAP(+) HF cells [2]; 3 days, F-Ade 0.6 μM, 5′-dAdo 7.5 μM where present, initial count 1,100", "value": 976}, {"measurement": "inhibition of HF cell growth", "setting": "MTAP(+) HF cells [2]; increasing concentrations of F-Ade", "value": "increasing inhibition"}, {"measurement": "survival of HF cells", "setting": "MTAP(+) HF cells [7]; 2 μM F-Ade, after 3 days", "value": "no HF cells survive"}, {"measurement": "Viable Cells", "setting": "MTAP(+) HF cells [7]; 3 days, F-Ade 2 μM, 5′-dAdo 30 μM where present, initial viable cells per dish 45,000", "value": "0*"}, {"measurement": "Coulter counts", "setting": "MTAP(−) A549 cells [8]; F-Ade 1 μM", "value": "7,980"}, {"measurement": "Coulter counts", "setting": "MTAP(−) A549 cells [8]; F-Ade 2 μM", "value": "7,890"}, {"measurement": "toxicity to A549 tumor cells, clonogenic assay", "setting": "MTAP(−) A549 cells [5]; 1 to 2 μM F-Ade", "value": "highly toxic"}, {"measurement": "Viable Cells", "setting": "MTAP(−) A549 cells [5]; three days, F-Ade 1 μM, MTA, 5′-dAdo or Ade 40 μM where present", "value": 64}, {"measurement": "Viable Cells", "setting": "MTAP(−) A549 cells [5]; three days, F-Ade 2 μM, MTA, 5′-dAdo or Ade 40 μM where present", "value": 0}]}]}
